# Tests used:
# [1] = tested on: HT29; assay: 72-h MTT cytotoxicity assay HT29; assay type: cell-based; conditions: Homo sapiens, HT-29, 72 h, Table 4
# Summary of the method: (§1)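 Read-out is MTT formazan dissolved in DMSO after a 4 h dark incubation with dye at 37° C. Before that, cells seeded according to doubling time received a 1/3 dilution series of compound in triplicate for 72 h at 37° C.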
# [2] = biological target: GSK-3β (Homo sapiens, UniProt P49841); assay: Kinase assay GSK-3β; assay type: biochemical; conditions: Table 2; read-out: Kinase Inhibition IC50 GSK-3β
# Chain of GSK-3β (P49841 whole entry): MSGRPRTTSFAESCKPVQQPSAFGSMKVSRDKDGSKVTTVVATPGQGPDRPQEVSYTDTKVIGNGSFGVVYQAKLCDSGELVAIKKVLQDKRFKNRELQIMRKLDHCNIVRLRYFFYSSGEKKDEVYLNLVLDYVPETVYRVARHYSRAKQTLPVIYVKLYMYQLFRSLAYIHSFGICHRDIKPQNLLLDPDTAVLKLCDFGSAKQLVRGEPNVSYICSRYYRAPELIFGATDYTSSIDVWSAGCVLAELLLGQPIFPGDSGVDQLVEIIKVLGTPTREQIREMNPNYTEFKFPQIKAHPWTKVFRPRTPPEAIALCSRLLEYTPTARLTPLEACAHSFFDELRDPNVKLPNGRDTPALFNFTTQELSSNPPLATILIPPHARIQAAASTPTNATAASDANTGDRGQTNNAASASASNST
# Experimental: (§2) Kinase assays. […] This was achieved by measurement of incorporation of radioactive phosphate from ATP into appropriate polypeptide substrates. Recombinant protein kinases and kinase complexes were produced or obtained commercially. Assays were performed using 96-well plates and appropriate assay buffers (typically 25 mM β-glycerophosphate, 20 mM MOPS, 5 mM EGTA, 1 mM DTT, 1 mM […], pH 7.4), into which were added 2-4 μg of active enzyme with appropriate substrates. The reactions were initiated by addition of Mg/ATP mix (15 mM MgCl2+100 μM ATP with 30-50 kBq per well of [γ-^32P]-ATP) and mixtures incubated as required at 30° C. Reactions were stopped on ice, followed by filtration through p81 filterplates or GF/C filterplates (Whatman Polyfiltronics, Kent, UK). After washing 3 times with 75 mM aq orthophosphoric acid, plates were dried, scintillant added and incorporated radioactivity measured in a scintillation counter (TopCount, Packard Instruments, Pangbourne, Berks, UK). Compounds for kinase assay were made-up as 10 mM stocks in DMSO and diluted into 10% DMSO inrassay buffer.
# [3] = biological target: CDK1/cyclin B (Homo sapiens, UniProt P06493); assay: Kinase assay CDK1/cyclin B; assay type: biochemical; conditions: Table 2; read-out: Kinase Inhibition IC50 CDK1 cyclin B
# Chain of CDK1/cyclin B (P06493 whole entry): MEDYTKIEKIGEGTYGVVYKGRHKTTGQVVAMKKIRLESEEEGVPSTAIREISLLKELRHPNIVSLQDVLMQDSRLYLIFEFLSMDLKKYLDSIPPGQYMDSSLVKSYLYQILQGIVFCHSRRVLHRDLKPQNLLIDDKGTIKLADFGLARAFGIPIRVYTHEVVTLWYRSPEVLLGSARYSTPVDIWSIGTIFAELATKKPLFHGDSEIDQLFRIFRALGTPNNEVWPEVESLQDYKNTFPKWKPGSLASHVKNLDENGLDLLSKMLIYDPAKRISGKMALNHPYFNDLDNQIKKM
# Chain of CDK1/cyclin B (P14635 whole entry partner): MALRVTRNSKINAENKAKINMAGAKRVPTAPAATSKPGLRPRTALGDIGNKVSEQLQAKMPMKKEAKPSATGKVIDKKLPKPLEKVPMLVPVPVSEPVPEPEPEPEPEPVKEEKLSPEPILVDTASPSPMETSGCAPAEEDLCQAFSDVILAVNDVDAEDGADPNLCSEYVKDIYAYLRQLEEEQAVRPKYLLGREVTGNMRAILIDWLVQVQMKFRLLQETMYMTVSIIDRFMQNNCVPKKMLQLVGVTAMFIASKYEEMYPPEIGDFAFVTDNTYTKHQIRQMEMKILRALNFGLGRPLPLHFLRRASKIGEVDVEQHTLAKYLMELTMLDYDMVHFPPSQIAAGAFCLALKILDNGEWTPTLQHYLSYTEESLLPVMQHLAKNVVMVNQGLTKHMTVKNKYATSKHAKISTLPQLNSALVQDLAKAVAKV
# Summary of the method: (§3)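 Radiometric kinase assays with recombinant enzymes (2-4 μg) and polypeptide substrates in β-glycerophosphate/MOPS/EGTA buffer, pH 7.4. Started with 15 mM MgCl2 + 100 μM ATP containing [γ-32P]-ATP, incubated at 30° C; incorporated 32P captured on filterplates and counted. Compounds diluted in 10% DMSO assay buffer.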
# [4] = tested on: A549; assay: 72-h MTT cytotoxicity assay A549; assay type: cell-based; conditions: Homo sapiens, A549, 72 h, Table 4
# Summary of the method: as §1
# [5] = tested on: Saos-2; assay: 72-h MTT cytotoxicity assay Saos-2; assay type: cell-based; conditions: Homo sapiens, SAOS-2, 72 h, Table 4
# Summary of the method: as §1
# [6] = biological target: CDK7/cyclin H (Homo sapiens, UniProt P50613); assay: CDK7 assay; assay type: biochemical; conditions: Table 2; read-out: Kinase Inhibition IC50 CDK7 cyclin H
# Chain of CDK7/cyclin H (P50613 whole entry): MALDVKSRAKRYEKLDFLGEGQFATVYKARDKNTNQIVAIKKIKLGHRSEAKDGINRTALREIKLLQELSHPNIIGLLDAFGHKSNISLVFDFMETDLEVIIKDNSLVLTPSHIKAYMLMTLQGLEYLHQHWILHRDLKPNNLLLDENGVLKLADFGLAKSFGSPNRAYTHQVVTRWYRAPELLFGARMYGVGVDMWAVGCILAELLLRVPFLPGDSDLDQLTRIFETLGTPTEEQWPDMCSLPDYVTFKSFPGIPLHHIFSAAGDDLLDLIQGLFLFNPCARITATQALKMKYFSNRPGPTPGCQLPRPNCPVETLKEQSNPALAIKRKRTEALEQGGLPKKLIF
# Summary of the method: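 Recombinant human CDK7/cyclin H or CDK9/cyclin T1 (0.5–2 μg) phosphorylated biotinylated CTD heptapeptide-repeat substrate for 45 min at 30 °C in MOPS pH 7.2 buffer with 15 mM MgCl2 and 100 μM ATP plus [γ-32P]ATP. After avidin capture on P81 filters and phosphoric acid washes, 32P incorporation was counted by scintillation.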
# [7] = biological target: CDK4/cyclin D1 (Homo sapiens, UniProt P11802); assay: Kinase assay CDK4/cyclin D1; assay type: biochemical; conditions: Table 2; read-out: Kinase Inhibition IC50 CDK4 cyclin D1
# Chain of CDK4/cyclin D1 (P11802 whole entry): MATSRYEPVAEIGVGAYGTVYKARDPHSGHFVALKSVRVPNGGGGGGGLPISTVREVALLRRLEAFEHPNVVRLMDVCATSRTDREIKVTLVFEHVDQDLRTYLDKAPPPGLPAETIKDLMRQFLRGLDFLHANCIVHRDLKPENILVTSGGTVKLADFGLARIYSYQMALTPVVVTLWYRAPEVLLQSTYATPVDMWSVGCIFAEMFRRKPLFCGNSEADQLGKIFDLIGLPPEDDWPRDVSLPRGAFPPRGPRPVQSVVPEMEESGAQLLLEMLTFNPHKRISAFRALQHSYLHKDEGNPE
# Chain of CDK4/cyclin D1 (P24385 whole entry partner): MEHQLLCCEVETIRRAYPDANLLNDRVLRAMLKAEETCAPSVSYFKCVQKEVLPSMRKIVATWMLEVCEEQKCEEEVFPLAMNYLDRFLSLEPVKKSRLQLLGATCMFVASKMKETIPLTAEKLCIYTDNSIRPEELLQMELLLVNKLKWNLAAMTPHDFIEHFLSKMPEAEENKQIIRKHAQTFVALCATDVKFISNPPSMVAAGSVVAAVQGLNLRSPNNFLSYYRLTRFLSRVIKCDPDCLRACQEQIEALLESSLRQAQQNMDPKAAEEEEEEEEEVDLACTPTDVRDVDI
# Summary of the method: as §3
# [8] = biological target: CDK9/cyclin T1 (Homo sapiens, UniProt P50750); assay: CDK9 assay; assay type: biochemical; conditions: Table 2; read-out: Kinase Inhibition IC50 CDK9 cyclin T1
# Chain of CDK9/cyclin T1 (P50750 whole entry): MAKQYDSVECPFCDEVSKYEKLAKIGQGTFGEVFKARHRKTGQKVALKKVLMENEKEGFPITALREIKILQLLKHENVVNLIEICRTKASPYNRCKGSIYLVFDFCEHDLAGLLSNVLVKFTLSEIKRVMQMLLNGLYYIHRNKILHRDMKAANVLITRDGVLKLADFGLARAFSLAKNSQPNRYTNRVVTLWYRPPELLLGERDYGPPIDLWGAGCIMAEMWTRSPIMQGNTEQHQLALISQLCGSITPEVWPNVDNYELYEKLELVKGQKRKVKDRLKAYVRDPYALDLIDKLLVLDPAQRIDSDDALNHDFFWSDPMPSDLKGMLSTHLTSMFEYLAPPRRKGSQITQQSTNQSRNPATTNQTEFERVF
# Chain of CDK9/cyclin T1 (O60563 whole entry partner): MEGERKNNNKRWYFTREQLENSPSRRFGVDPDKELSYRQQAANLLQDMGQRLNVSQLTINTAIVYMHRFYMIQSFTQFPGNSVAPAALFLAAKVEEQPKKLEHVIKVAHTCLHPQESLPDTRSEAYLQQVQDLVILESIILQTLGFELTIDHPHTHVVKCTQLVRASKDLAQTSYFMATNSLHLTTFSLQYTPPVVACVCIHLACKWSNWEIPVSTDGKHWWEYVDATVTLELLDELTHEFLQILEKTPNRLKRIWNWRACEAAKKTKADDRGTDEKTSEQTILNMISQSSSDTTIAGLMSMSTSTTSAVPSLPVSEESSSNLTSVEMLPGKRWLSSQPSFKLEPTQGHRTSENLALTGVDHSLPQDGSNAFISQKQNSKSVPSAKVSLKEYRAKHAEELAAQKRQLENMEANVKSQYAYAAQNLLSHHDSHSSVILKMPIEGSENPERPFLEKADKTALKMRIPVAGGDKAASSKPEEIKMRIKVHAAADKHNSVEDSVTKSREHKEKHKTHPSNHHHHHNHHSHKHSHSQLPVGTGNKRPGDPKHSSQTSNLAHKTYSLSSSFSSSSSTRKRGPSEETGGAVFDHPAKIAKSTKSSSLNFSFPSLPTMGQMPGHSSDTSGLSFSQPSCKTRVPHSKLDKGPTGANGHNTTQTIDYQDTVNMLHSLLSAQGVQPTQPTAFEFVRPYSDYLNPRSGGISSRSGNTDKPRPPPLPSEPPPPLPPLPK
# Experimental: as §2
# CDK 7 and 9 assays. CTD peptide substrate (biotinyl-Ahx-(Tyr-Ser-Pro-Thr-Ser-Pro-Ser)4-NH2; 1-2 mg/mL) and recombinant human CDK7/cyclin H, CDK9/cyclin T1, or CDK9/cyclin K (0.5-2 μg) were incubated for 45 min at 30° C. in the presence of varying amounts of test compound in 20 mM MOPS pH 7.2, 25 mM β-glycerophosphate, 5 mM EGTA, 1 mM DTT, 1 mM sodium vanadate, 15 mM MgCl2, and 100 μM ATP (containing a trace amount of ^32PγATP) in a total volume of 25 μL in a 96-well microtiter plate. The reaction was stopped by placing the plate on ice for 2 min. Avidin (50 μg) was added to each well, and the plate was incubated at room temp for 30 min. The samples were transferred to a 96-well P81 filter plate, and washed (4×200 μL per well) with 75 mM phosphoric acid. Microscint 40 scintillation liquid (50 μL) was added to each well, and the amount of ^32P incorporation for each sample was measured using a Packard Topcount microplate scintillation counter.
# [9] = biological target: PLK-1 (Homo sapiens, UniProt P53350); assay: Kinase assay PLK-1; assay type: biochemical; conditions: Table 2; read-out: Kinase Inhibition IC50 PLK-1
# Chain of PLK-1 (P53350 whole entry): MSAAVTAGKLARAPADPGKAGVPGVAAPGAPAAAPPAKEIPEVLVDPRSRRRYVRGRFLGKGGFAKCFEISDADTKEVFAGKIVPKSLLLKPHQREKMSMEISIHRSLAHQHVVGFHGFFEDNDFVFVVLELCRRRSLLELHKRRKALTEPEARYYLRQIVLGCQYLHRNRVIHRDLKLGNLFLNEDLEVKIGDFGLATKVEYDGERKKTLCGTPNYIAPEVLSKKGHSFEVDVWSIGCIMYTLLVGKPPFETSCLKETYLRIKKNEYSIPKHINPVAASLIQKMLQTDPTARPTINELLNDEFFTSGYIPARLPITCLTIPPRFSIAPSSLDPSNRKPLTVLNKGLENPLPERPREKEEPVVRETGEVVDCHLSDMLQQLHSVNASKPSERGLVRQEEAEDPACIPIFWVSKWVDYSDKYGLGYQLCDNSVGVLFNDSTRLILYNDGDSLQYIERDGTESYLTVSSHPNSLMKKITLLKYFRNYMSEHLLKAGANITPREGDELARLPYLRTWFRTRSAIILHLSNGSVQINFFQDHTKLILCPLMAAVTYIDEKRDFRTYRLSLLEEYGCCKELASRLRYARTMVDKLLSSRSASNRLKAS
# Experimental: as §2
# [10] = biological target: CDK2/cyclin A (Homo sapiens, UniProt P24941); assay: Kinase assay CDK2/cyclin A; assay type: biochemical; conditions: Table 2; read-out: Kinase Inhibition IC50 CDK2 cyclin A
# Summary of the method: as §3
# [11] = biological target: CDK2/cyclin E (Homo sapiens, UniProt P24941); assay: Kinase assay CDK2/cyclin E; assay type: biochemical; conditions: Table 2; read-out: Kinase Inhibition IC50 CDK2 cyclin E
# Summary of the method: as §3
IC50 [2],IC50 [3],IC50 [6],IC50 [7],IC50 [8],IC50 [9],IC50 [10],IC50 [11],melting point,SMILES,IC50 [1],IC50 [4],IC50 [5]
> 100 µM,75 µM,97000 nM,3900 nM,23000 nM,> 100 µM,–,–,–,"Cc1nc(C)c(-c2ccnc(Nc3ccc(N4CCOCC4)cc3)n2)s1 [Compound 2, [4-(2,4-Dimethyl-thiazol-5-yl)-pyrimidin-2-yl]-(4-morpholin-4-yl-phenyl)-amine]",3300 nM,3500 nM,4800 nM
2.1 µM,0.74 µM,590 nM,130 nM,100 nM,18 µM,310 nM,80 nM,–,"CCNc1nc(C)c(-c2ccnc(Nc3cccc(CNC(C)=O)c3)n2)s1 [Compound 64, N-{3-[4-(2-Ethylamino-4-methyl-thiazol-5-yl)-pyrimidin-2-ylamino]-benzyl}-acetamide]",410 nM,190 nM,340 nM
0.25 µM,0.24 µM,200 nM,1700 nM,110 nM,> 100 µM,98 nM,2.5 nM,–,"Cc1nc(NC(=O)CCN2CCOCC2)sc1-c1ccnc(Nc2cccc([N+](=O)[O-])c2)n1 [Compound 22, N-{4-Methyl-5-[2-(3-nitro-phenylamino)-pyrimidin-4-yl]-thiazol-2-yl}-3-morpholin-4-yl-propionamide]",520 nM,810 nM,600 nM
21 µM,5.6 µM,5600 nM,1700 nM,6100 nM,35 µM,–,–,–,"CC(=O)N1CCN(c2ccc(Nc3nccc(-c4sc(C)nc4C)n3)cc2)CC1 [Compound 5, 1-(4-{4-[4-(2,4-Dimethyl-thiazol-5-yl)-pyrimidin-2-ylamino]-phenyl}-piperazin-1-yl)-ethanone]",2200 nM,3800 nM,3900 nM
5.2 µM,3 µM,1300 nM,390 nM,1000 nM,13 µM,850 nM,710 nM,–,"Cc1nc(C)c(-c2ccnc(Nc3ccc(N4CCNCC4)cc3)n2)s1 [Compound 6, [4-(2,4-Dimethyl-thiazol-5-yl)-pyrimidin-2-yl]-(4-piperazin-1-yl-phenyl)-amine]",1100 nM,1300 nM,780 nM
–,0.12 µM,2100 nM,630 nM,–,–,100 nM,110 nM,206 to 207 °C,"CC(=O)NCc1cccc(Nc2nccc(-c3sc(C)nc3C)n2)c1 [Compound 66, N-{3-[4-(2,4-Dimethyl-thiazol-5-yl)-pyrimidin-2-ylamino]-benzyl}-acetamide]",–,–,–
1.2 µM,3.1 µM,810 nM,3000 nM,400 nM,24 µM,1400 nM,190 nM,–,"Cc1nc(NC(=O)CCN2CCN(C)CC2)sc1-c1ccnc(Nc2cccc([N+](=O)[O-])c2)n1 [Compound 23, N-{4-Methyl-5-[2-(3-nitro-phenylamino)-pyrimidin-4-yl]-thiazol-2-yl}-3-(4-methyl-piperazin-1-yl)-propionamide]",1100 nM,3800 nM,4400 nM
48 µM,62 µM,9600 nM,25000 nM,4100 nM,–,12000 nM,730 nM,–,"Cc1nc(C)c(-c2ccnc(Nc3ccc(Cl)c(CO)c3)n2)s1 [Compound 72, {2-Chloro-5-[4-(2,4-dimethyl-thiazol-5-yl)-pyrimidin-2-ylamino]-phenyl}-methanol]",20000 nM,32000 nM,18000 nM
74 µM,7.7 µM,190 nM,71 nM,12000 nM,–,73000 nM,350 nM,–,"Cc1nc(N2CCOCC2)sc1-c1ccnc(Nc2ccc(N(C)C)cc2)n1 [Compound 57, N,N-Dimethyl-N′-[4-(4-methyl-2-morpholin-4-yl-thiazol-5-yl)-pyrimidin-2-yl]-benzene-1,4-diamine]",240 nM,2700 nM,3800 nM
–,3.4 µM,13000 nM,950 nM,1.8 nM,–,890 nM,390 nM,217 to 219 °C,"Cc1nc(C)c(-c2ccnc(Nc3ccc(NC(=O)CCl)cc3)n2)s1 [Compound 50, 2-Chloro-N-{4-[4-(2,4-dimethyl-thiazol-5-yl)-pyrimidin-2-ylamino]-phenyl}-acetamide]",160 nM,160 nM,160 nM
0.083 µM,9.4 µM,3200 nM,970 nM,680 nM,–,3000 nM,220 nM,–,"Cc1nc(NC(=O)CCl)sc1-c1ccnc(Nc2cccc(Cl)c2)n1 [Compound 25, 2-Chloro-N-{5-[2-(3-chloro-phenylamino)-pyrimidin-4-yl]-4-methyl-thiazol-2-yl}-acetamide]",1300 nM,970 nM,1600 nM
14 µM,0.54 µM,4900 nM,1300 nM,460 nM,> 200 µM,320 nM,97 nM,–,"Cc1nc(NC(=O)CCN2CCOCC2)sc1-c1ccnc(Nc2ccc(F)cc2)n1 [Compound 21, N-{5-[2-(4-Fluoro-phenylamino)-pyrimidin-4-yl]-4-methyl-thiazol-2-yl}-3-morpholin-4-yl-propionamide]",4100 nM,8600 nM,4300 nM
53 µM,4.2 µM,1100 nM,190 nM,280 nM,55 µM,1000 nM,1800 nM,–,"Cc1nc(C)c(-c2ccnc(Nc3ccc(N4CCN(C)CC4)cc3)n2)s1 [Compound 12, [4-(2,4-Dimethyl-thiazol-5-yl)-pyrimidin-2-yl]-[4-(4-methyl-piperazin-1-yl)-phenyl]-amine]",740 nM,710 nM,430 nM
39 µM,4.9 µM,970 nM,360 nM,510 nM,> 150 µM,1100 nM,1200 nM,–,"Cc1nc(C)c(-c2ccnc(Nc3ccc(N4CCN(CCCO)CC4)cc3)n2)s1 [Compound 8, 3-(4-{4-[4-(2,4-Dimethyl-thiazol-5-yl)-pyrimidin-2-ylamino]-phenyl}-piperazin-1-yl)-propan-1-ol]",800 nM,610 nM,380 nM
